Results as given in patent publication US11938137B2, “Lipid prodrugs of mycophenolic acid and uses thereof” (PureTech LYT, Inc., priority 2017, dated 2024).

Assay: In vitro release of MPA from prodrugs in plasma supplemented with lipoprotein lipase (LPL)
Format: in vitro ADME, rat
Settings: 60 min; n = 3 unless specified otherwise
Experimental: The percentage of MPA released at 60 minutes in LPL-supplemented rat plasma was also determined for selected compounds. […] The designation “**” indicates a release % of >25% to 50%. The designation “***” indicates a release % of >50% to 75%. The designation “****” indicates a release % of >75%.
In order to probe the release of free drug from TG prodrugs in the systemic circulation, prodrugs were incubated with plasma (rat, mouse, dog, pig or human) supplemented with lipoprotein lipase (LPL, 200 IU/ml). LPL is a key enzyme required for the hydrolysis of lipoprotein associated TG in the systemic circulation and is therefore expected to be a key contributor to lipolysis of the re-esterified drug-TG construct in plasma, largely via liberation of fatty acids in the sn-1 and the sn-3 position of the TG-mimetic, prior to drug release from the 2′ position via esterase hydrolysis. LPL is […] is tethered to the luminal surface of vascular endothelial cells under physiological conditions. In the current in vitro studies, plasma was therefore supplemented with LPL to better reflect the in vivo situation. To start hydrolysis, 10 μl of LPL solution (10,000 IU/ml) was added to a mixture of 10 μl of prodrug solution (1 mg/ml dissolved in acetonitrile) and 500 μl of blank plasma. The mixture was incubated at 37° C. Samples (20 μl) of the incubation solution were taken at 0, 5, 15, 30, 60, 90, 120 and 180 minutes post-incubation and added to 180 μl of MeCN to stop lipolysis. The mixture was vortexed and centrifuged at 4500×g for 5 minutes to precipitate proteins prior to analysis. The supernatant was analyzed by HPLC-MS/MS for the potential products (MG form, acid form, and free drug) of prodrug hydrolysis.

Percentage MPA release at 60 min in LPL supplemented rat plasma | Compound
*** (a release % of >50% to 75%) | CCCCCCCCCCCCCCCC(=O)OCC(COC(=O)CCCCCCCCCCCCCCC)OC(=O)CC(C)CCCCCCCC(C)C(=O)Oc1c(C/C=C(\C)CCC(=O)OC)c(OC)c(C)c2c1C(=O)OC2 (stereo not drawn) [I-20]

Same assay, conditions: after 180 min, rat plasma supplemented with LPL

monoglyceride (MG) peak | Compound
almost completely disappeared | CCCCCCCCCCCCCCCC(=O)OCC(COC(=O)CCCCCCCCCCCCCCC)OC(=O)CC(C)CCCCCCCC(C)C(=O)Oc1c(C/C=C(\C)CCC(=O)OC)c(OC)c(C)c2c1C(=O)OC2 (stereo not drawn) [I-20]

Assay: Lymphatic transport assay in mesenteric lymph-duct cannulated rats
Format: in vivo, rat
Settings: as E2 but dose 1 mg/rat; class symbols
Experimental: In order to assess the lymphatic transport of disclosed lipid prodrugs in rats, the mesenteric lymph ducts of the rats used in this study were cannulated to allow continual collection of mesenteric lymph. Lipid formulations containing the compound of interest were then administered to the animals, lymph was collected, and drug concentrations in the lymph samples were quantified.
Lipid-based formulations of the compounds of the invention or control compounds were prepared as previously described (Trevaskis, N. L. et al., Pharmaceutical Research, 2005, 22(11), 1863-1870, WO 2016/023082, and WO 2017/041139, hereby incorporated by reference.
In brief, either 1 or 2 mg of test prodrug, 40 mg oleic acid and 25 mg Tween 80 were mixed in a glass vial and incubated at 37° C. for 12-18 h to equilibrate. An aqueous phase consisting of 5.6 ml phosphate buffered saline (PBS, pH 7.4) was subsequently added to the lipid phase (MPA was dissolved in PBS for the preparation of MPA containing formulations) and the formulation emulsified by ultrasonication with a Misonix XL 2020 ultrasonic processor (Misonix, Farmingdale, NY, USA) equipped with a 3.2-mm microprobe tip running at 30% of the maximal amplitude of 240 μm and a frequency of 20 kHz for 2 min at room temperature. Doses for administering to more than one animal can be prepared in one batch by suitably increasing the quantities given above. Drug/prodrug concentrations in all formulations were verified using HPLC-MS.
Male Sprague-Dawley (SD) rats were selected for the lymphatic transport studies. Rats (typically 240-320 g) were maintained on a standard diet and fasted overnight with free access to water prior to experiments.
Anesthetized rats were placed on a heated pad at 37° C. and cannulas inserted into the duodenum (for formulation administration and rehydration), mesenteric lymph duct (for lymph collection), and carotid artery (in cases where blood collection was conducted). Post-surgery, rats were re-hydrated for 0.5 h via intraduodenal infusion of normal saline at 2.8 mL/h. The lipid formulations were infused into the duodenum at 2.8 mL/h for 2 h after which, normal saline was infused at 2.8 mL/h for the remainder of the experiment. Lymph was continuously collected for up to 8 h into pre-weighed Eppendorf tubes containing 10 μL of 1,000 IU/mL heparin. The collection tubes were changed hourly and lymph flow was measured gravimetrically. Aliquots of hourly lymph samples were stored at −20° C. prior to assay.
Drug concentration in lymph is expressed as total drug and includes free drug and drug associated with different glycerides. Lymph samples are first treated with a lipase or other appropriate conditions to liberate free active agent prior to measurement of active agent levels in the lymph. Treatment with a lipase or other hydrolysis conditions liberates free active agent from any corresponding re-esterified glycerides. Porcine pancreatic lipase is appropriate for this purpose. Alternatively, hydrolysis with 0.5 M NaOH may be used. For MPA “phenol” prodrugs (i.e. prodrugs linked to the triglyceride at the aromatic —OH group of MPA), hydrolysis was performed with 0.5 M NaOH except for the lymph samples collected from 3 rats in the group of compound I-20 (MPA-O-C12α′βMe-TG), which were hydrolyzed by porcine pancreatic lipase.
Transport of compounds into lymph during each hourly collection period was calculated from the product of the volume of lymph collected and the measured concentrations in lymph. For fluorescently-labelled compounds such as a BDP-conjugate, the concentrations of total compound may be measured by fluorescence spectroscopy without hydrolysis.
The results of the lymphatic transport assays are summarized in Table 2, below, and FIGS. 1-19. Table 2 summarizes lymphatic transport of total MPA related compound (% of administered dose) following intraduodenal infusion to anaesthetised, mesenteric lymph-duct cannulated rats. […]

Cumulative lymphatic transport % dose (Mean ± SD, or Range if n = 2) | Compound
B (between 1% and 10% (1%-10%)) | CCCCCCCCCCCCCCCC(=O)OCC(COC(=O)CCCCCCCCCCCCCCC)OC(=O)CCCCCCCCCCCCCCCCCOC(=O)CC/C(C)=C/Cc1c(O)c2c(c(C)c1OC)COC2=O [I-38, (E)-2-((18-((6-(4-hydroxy-6-methoxy-7-methyl-3-oxo-1,3-dihydroisobenzofuran-5-yl)-4-methylhex-4-enoyl)oxy)octadecanoyl)oxy)propane-1,3-diyl dipalmitate]

Same assay, conditions: total MPA related compound, intraduodenal infusion, anesthetised mesenteric lymph-duct cannulated rats; class symbols

Compound | Cumulative lymphatic transport % dose (Mean ± SD, or Range if n = 2)
CCCCCCCCCCCCCCCC(=O)OCC(COC(=O)CCCCCCCCCCCCCCC)OC(=O)CCCCCCCCCCC(=O)Oc1c(C/C=C(\C)CCC(=O)OC)c(OC)c(C)c2c1C(=O)OC2 [I-30, (E)-1-(1,3-bis(palmitoyloxy)propan-2-yl) 12-(6-methoxy-5-(6-methoxy-3-methyl-6-oxohex-2-en-1-yl)-7-methyl-3-oxo-1,3-dihydroisobenzofuran-4-yl) dodecanedioate] | A (greater than 10% (>10%))
CCCC(=O)OCC(COC(=O)CCC)OC(=O)CC(C)CCCCCCCCCCCCOC(=O)CC/C(C)=C/Cc1c(O)c2c(c(C)c1OC)COC2=O (stereo not drawn) [I-43] | A (greater than 10% (>10%))
CCCCCCCCCCCCCCCC(=O)OCC(COP(=O)(O)OCC[N+](C)(C)C)OC(=O)CC/C(C)=C/Cc1c(O)c2c(c(C)c1OC)COC2=O (stereo not drawn) [I-39] | C (less than 1% and greater than 0.24% (<1% and >0.24%))
CCCCCCCCCCCCCCCC(=O)OCC(COC(=O)CCCCCCCCCCCCCCC)OC(=O)CCC(=O)Oc1c(C/C=C(\C)CCC(=O)OC)c(OC)c(C)c2c1C(=O)OC2 [I-17] | C (less than 1% and greater than 0.24% (<1% and >0.24%))
CCCCCCCCCCCCCCCC(=O)OCC(COC(=O)CCCCCCCCCCCCCCC)OCCCCOC(=O)CC/C(C)=C/Cc1c(O)c2c(c(C)c1OC)COC2=O [I-25, (E)-2-(4-((6-(4-hydroxy-6-methoxy-7-methyl-3-oxo-1,3-dihydroisobenzofuran-5-yl)-4-methylhex-4-enoyl)oxy)butoxy)propane-1,3-diyl dipalmitate] | C (less than 1% and greater than 0.24% (<1% and >0.24%))
CCCCCCCCCCCCCCCC(=O)OCC(COC(=O)CCCCCCCCCCCCCCC)OC(=O)CC(C)CCCC(=O)Oc1c(C/C=C(\C)CCC(=O)OC)c(OC)c(C)c2c1C(=O)OC2 (stereo not drawn) [I-53] | A (greater than 10% (>10%))
CCCCCCCCCCCCCCCC(=O)OCC(COC(=O)CCCCCCCCCCCCCCC)OCCCCCCOC(=O)CC/C(C)=C/Cc1c(O)c2c(c(C)c1OC)COC2=O [I-26, (E)-2-((6-((6-(4-hydroxy-6-methoxy-7-methyl-3-oxo-1,3-dihydroisobenzofuran-5-yl)-4-methylhex-4-enoyl)oxy)hexyl)oxy)propane-1,3-diyl dipalmitate] | C (less than 1% and greater than 0.24% (<1% and >0.24%))
CCCCCCCCCCCCCCCC(=O)OCC(COC(=O)CCCCCCCCCCCCCCC)OC(=O)C(C)CCCCCCCCC(C)C(=O)OCOc1c(C/C=C(\C)CCC(=O)OC)c(OC)c(C)c2c1C(=O)OC2 (stereo not drawn) [I-41] | A (greater than 10% (>10%))
CCCCCCCCCCCCCCCC(=O)OCC(COC(=O)CCCCCCCCCCCCCCC)OC(=O)CC(C)CCCC(=O)Oc1c(C/C=C(\C)CCC(=O)OC)c(OC)c(C)c2c1C(=O)OC2 (stereo not drawn) [I-16, MPA-(O—C10bMe-2-TG)-OMe] | A (greater than 10% (>10%))

Continued, values first:

Cumulative lymphatic transport % dose (Mean ± SD, or Range if n = 2) | Compound
A (greater than 10% (>10%)) | CCCCCCCCCCCCCCCC(=O)OCC(COC(=O)CCCCCCCCCCCCCCC)OC(=O)CC(C)CCCCCCCC(C)C(=O)OC(C)Oc1c(C/C=C(\C)CCC(=O)OC)c(OC)c(C)c2c1C(=O)OC2 (stereo not drawn) [I-58, (E)-12-(1,3-bis(palmitoyloxy)propan-2-yl) 1-(1-((6-methoxy-5-(6-methoxy-3-methyl-6-oxohex-2-en-1-yl)-7-methyl-3-oxo-1,3-dihydroisobenzofuran-4-yl)oxy)ethyl) 2,10-dimethyldodecanedioate]
A (greater than 10% (>10%)) | CCCCCCCCCCCCCCCC(=O)OCC(COC(=O)CCCCCCCCCCCCCCC)OC(=O)C(C)CCCCCCCC(=O)Oc1c(C/C=C(\C)CCC(=O)OC)c(OC)c(C)c2c1C(=O)OC2 (stereo not drawn) [I-45]
A (greater than 10% (>10%)) | CCCCCCCCCCCCCCCC(=O)OCC(COC(=O)CCCCCCCCCCCCCCC)OC(=O)CC(C)CCCCCCCCCCCC(=O)Oc1c(C/C=C(\C)CCC(=O)OC)c(OC)c(C)c2c1C(=O)OC2 (stereo not drawn) [I-31, (E)-1-(1,3-bis(palmitoyloxy)propan-2-yl) 15-(6-methoxy-5-(6-methoxy-3-methyl-6-oxohex-2-en-1-yl)-7-methyl-3-oxo-1,3-dihydroisobenzofuran-4-yl) 3-methylpentadecanedioate]
A (greater than 10% (>10%)) | CCCCCCCCCCCCCCCC(=O)OCC(COC(=O)CCCCCCCCCCCCCCC)OC(=O)CC(C)CCCCCCCC(C)C(=O)OCOc1c(C/C=C(\C)CCC(=O)OC)c(OC)c(C)c2c1C(=O)OC2 (stereo not drawn) [I-44]
A (greater than 10% (>10%)) | CCCCCCCCCCCCCCCC(=O)OCC(COC(=O)CCCCCCCCCCCCCCC)OC(=O)CC(C)CCCCCCCC(C)C(=O)Oc1c(C/C=C(\C)CCC(=O)OC)c(OC)c(C)c2c1C(=O)OC2 (stereo not drawn) [I-20]
B (between 1% and 10% (1%-10%)) | CCCCCCCCCCCCCCCC(=O)OCC(COC(=O)CCCCCCCCCCCCCCC)OC(=O)CC(C)CCCCCCCC(C)C(=O)Oc1ccc(COc2c(C/C=C(\C)CCC(=O)OC)c(OC)c(C)c3c2C(=O)OC3)cc1 (stereo not drawn) [I-54, (E)-12-(1,3-bis(palmitoyloxy)propan-2-yl) 1-(4-(((6-methoxy-5-(6-methoxy-3-methyl-6-oxohex-2-en-1-yl)-7-methyl-3-oxo-1,3-dihydroisobenzofuran-4-yl)oxy)methyl)phenyl) 2,10-dimethyldodecanedioate]
